# Reference: paper PMC10959927, “Platinum iodido drugs show potential anti-tumor activity, affecting cancer cell metabolism and inducing ROS and senescence in gastrointestinal cancer cells” (Communications Biology, 2024)
# “And” between values parts separate entries of the source, which are not always exact repeats. Equal values may be shown once.
# Tests used:
# Assay type in all cases: cell-based, human
# PANC1 cells = experiment: RT-qPCR gene expression (CDKN1A, IL6, MMP1, MAP2K3, SOD1, SOD2, CAT, MKI67, TNFRSF10D)
# Experimental: (§1) Total cellular RNA was extracted using Tri-Reagent (Life Technologies), following the manufacturer’s instructions. One μg of total RNA was primed with random primers and cDNA synthesized with an M-MLV reverse transcriptase following the manufacturer’s instructions (Promega). Target genes were amplified using a SYBR Green polymerase chain reaction assay, working with the specific primer sets listed in Table 4.
# (§2) Thermal cycling of the qPCR reaction was initiated with a denaturation step at 95 °C for 10 min. The process consisted of 40 cycles (denaturation at 95 °C for 15 sec, annealing at 60 °C for 30 sec, and elongation at 75 °C for 30 sec). PCR amplifications were carried out in a StepOne Real‐time PCR System (Applied Biosystems, 4376357). Relative mRNA levels were calculated by the delta-Ct method (2-ΔΔCt), where each 1-Ct difference equals a two-fold change in transcript abundance, using GAPDH as an endogenous gene reference. ΔΔCT represents the difference between the mean ΔCT value of the cells tested and the mean ΔCT value of the calibrator, both calculated for the same PCR run.
# MKN45 cells [1] = experiment: as above
# Experimental: as §1, §2
# AGS cells [2] = experiment: as above
# Experimental: as §1, §2
# MKN45 cells [3] = experiment: Clonogenic (CFU) assay with or without NAC; details: 10 days
# Experimental: (§3) For the clonogenic assay we used two different approaches. […] Then, cells were cultured in a 6-well plate at a very low concentration (2 × 10^3 cells per well) and incubated for 10 days. […] To evaluate the role of ROS in cell proliferation, we supplemented the growth medium with 0.5 mM NAC. After 10 days, the cells were fixed with 1% glutaraldehyde and stained with 0.1% crystal violet. The number of colonies was quantified directly and reflected as CFUs: Colony Forming Units.
# AGS cells [4] = experiment: Clonogenic (CFU) assay with or without NAC; details: 10 days
# Experimental: as §3
# AGS cells [5] = experiment: Ratio GSH/GSSG, colorimetric kit
# How it was run: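 AGS and PANC1 cells were exposed to compounds for 3 and 24 h, with H2O2 as positive control. GSSG was measured separately after 2-vinylpyridine treatment to give the GSH/GSSG ratio.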
# MKN45 cells [6] = experiment: Immunofluorescence of γ-H2AX foci; details: Fig. 3B; for foci/cell, number of cells in class: cell count
# Experimental: Cells (7 × 10^4) were seeded on 20 mm coverslips. […] Coverslips were incubated for 1 h with the primary antibody (Cell Signaling: H2AX Ser139 (#2595) and 53BP1 (#4937)) at room temperature, followed by a 1 h incubation with the appropriate secondary antibody. DNA was stained with DAPI. Fluorescence microscopy was performed using a NIKON Eclipse 90i. The image analysis was performed using the software program Nikon NIS-Elements and Image J.
# [7] = PANC1, Fig. 3C, replicate values
# [8] = MKN45, Fig. 3C, replicate values
smiles,measurement,setting,value
"CC(C)[NH][Pt@SP1]([I])([I])[NH]C(C)C [I6, cis-[PtI2(isopropylamine)2]]",MKI67 Fold change vs GAPDH,"PANC1 cells; PANC1, Fig. S4C",1.187 fold change and 1.0074 fold change and 1.3984 fold change
same,TNFRSF10D Fold change vs GAPDH,"PANC1 cells; PANC1, Fig. S4C",1.308 fold change and 1.177 fold change and 1.453 fold change
same,CAT (Fold change vs GAPDH),"PANC1 cells; PANC1, mRNA vs Control = 1",1.283 Fold change and 1.157 Fold change and 1.422 Fold change
same,SOD1 (Fold change vs GAPDH),"PANC1 cells; PANC1, mRNA vs Control = 1",1.212 Fold change and 1.267 Fold change and 1.413 Fold change
same,SOD2 (Fold change vs GAPDH),"PANC1 cells; PANC1, mRNA vs Control = 1",0.7792 Fold change and 0.7372 Fold change and 0.8236 Fold change
same,"CDKN1A, Fold change vs GAPDH",PANC1 cells; [7],0.7609 fold change and 0.6464 fold change and 0.8957 fold change
same,"IL-6, Fold change vs GAPDH",PANC1 cells; [7],2.029 fold change and 0.6879 fold change and 5.985 fold change
same,"MMP-1, Fold change vs GAPDH",PANC1 cells; [7],1.768 fold change and 1.572 fold change and 2.113 fold change
same,Fold change MAP2K3 vs GAPDH,"PANC1 cells; PANC1, Fig. 4B, replicate values",1.382 fold change and 1.186 fold change and 1.609 fold change
same,MKI67 Fold change vs GAPDH,"MKN45 cells [1]; MKN45, Fig. S4C",0.2699 fold change and 0.2509 fold change and 0.2902 fold change
same,TNFRSF10D Fold change vs GAPDH,"MKN45 cells [1]; MKN45, Fig. S4C",0.3106 fold change and 0.2548 fold change and 0.3786 fold change
same,CAT (Fold change vs GAPDH),"MKN45 cells [1]; MKN45, mRNA vs Control = 1",1.125 Fold change and 0.8671 Fold change and 1.459 Fold change
same,SOD1 (Fold change vs GAPDH),"MKN45 cells [1]; MKN45, mRNA vs Control = 1",1.504 Fold change and 1.381 Fold change and 1.638 Fold change
same,SOD2 (Fold change vs GAPDH),"MKN45 cells [1]; MKN45, mRNA vs Control = 1",2.631 Fold change and 2.276 Fold change and 3.26 Fold change
same,"CDKN1A, Fold change vs GAPDH",MKN45 cells [1]; [8],1.257 fold change and 1.116 fold change and 1.417 fold change
same,"IL-6, Fold change vs GAPDH",MKN45 cells [1]; [8],1.298 fold change and 0.9165 fold change and 1.735 fold change
same,"MMP-1, Fold change vs GAPDH",MKN45 cells [1]; [8],2.795 fold change and 2.229 fold change and 3.504 fold change
same,Fold change MAP2K3 vs GAPDH,"MKN45 cells [1]; MKN45, Fig. 4B, replicate values",2.445 fold change and 2.003 fold change and 2.985 fold change
same,"CDKN1A, Fold change vs GAPDH","AGS cells [2]; Fig. 3C, replicate values",7.239 fold change and 5.782 fold change and 9.064 fold change
same,"IL-6, Fold change vs GAPDH","AGS cells [2]; Fig. 3C, replicate values",1.072 fold change and 0.8542 fold change and 0.2227 fold change
same,"MMP-1, Fold change vs GAPDH","AGS cells [2]; Fig. 3C, replicate values",528.599 fold change and 466.082 fold change and 599.501 fold change
same,Fold change MAP2K3 vs GAPDH,"AGS cells [2]; Fig. 4B, replicate values",14.3277 fold change and 13.4406 fold change and 15.2735 fold change
same,MKI67 Fold change vs GAPDH,AGS cells [2]; Fig. S4C,0.8471 fold change and 0.6697 fold change and 1.072 fold change
same,TNFRSF10D Fold change vs GAPDH,AGS cells [2]; Fig. S4C,16.1948 fold change and 12.3693 fold change and 21.2034 fold change
same,CAT (Fold change vs GAPDH),AGS cells [2]; mRNA vs Control = 1,0.4383 Fold change and 0.3857 Fold change and 0.4982 Fold change
same,SOD1 (Fold change vs GAPDH),AGS cells [2]; mRNA vs Control = 1,1.81 Fold change and 1.501 Fold change and 2.182 Fold change
same,SOD2 (Fold change vs GAPDH),AGS cells [2]; mRNA vs Control = 1,0.6611 Fold change and 0.5938 Fold change and 0.736 Fold change
same,"colonies (CFUs), mean ± SD","MKN45 cells [3]; MKN45 + NAC 0.5 mM, IC25 concentration",526 ± 93
same,"colonies (CFUs), mean ± SD","MKN45 cells [3]; MKN45 + NAC 0.5 mM, IC50 concentration",46 ± 2
same,"colonies (CFUs), mean ± SD","MKN45 cells [3]; MKN45, IC25 concentration, no NAC",1 ± 1.7
same,"colonies (CFUs), mean ± SD","MKN45 cells [3]; MKN45, IC50 concentration, no NAC",0
same,"colonies (CFUs), mean ± SD","AGS cells [4]; AGS + NAC 0.5 mM, IC25 concentration",613 ± 89
same,"colonies (CFUs), mean ± SD","AGS cells [4]; AGS + NAC 0.5 mM, IC50 concentration",329 ± 152
same,"colonies (CFUs), mean ± SD","AGS cells [4]; AGS, IC25 concentration, no NAC",268 ± 63
same,"colonies (CFUs), mean ± SD","AGS cells [4]; AGS, IC50 concentration, no NAC",0
same,GSH/GSSG,"AGS cells [5]; AGS, 3, relative to Control = 1",0.7708 and 0.7765 and 0.8015
same,GSH/GSSG,"AGS cells [5]; AGS, 24, relative to Control = 1",0.964 and 0.9646 and 1.003
same,"foci/cell, share of cells in class (Suma 100)",MKN45 cells [6]; class 16-30 foci/cell,16.6667
same,"foci/cell, number of cells in class",MKN45 cells [6]; class 16-30 foci/cell,7
same,"foci/cell, share of cells in class (Suma 100)",MKN45 cells [6]; class 31-45 foci/cell,14.2857
same,"foci/cell, number of cells in class",MKN45 cells [6]; class 31-45 foci/cell,6
same,"foci/cell, share of cells in class (Suma 100)",MKN45 cells [6]; class 46-60 foci/cell,23.8095
same,"foci/cell, number of cells in class",MKN45 cells [6]; class 46-60 foci/cell,10
